Tested on: MC38 cells + TGF-β1-treated murine colon fibroblasts (myoMCF)
Experiment: Isograft model MC38 + myoMCF (myoCAF-high tumours)
Assay type: in vivo, C57/BL6 female mice
Settings: AZD0156, myoCAF-high MC38 tumours
Protocol: SMA immunohistochemistry (IHC; Sigma Aldrich; A2547) on FFPE tissues was performed as previously: in brief, tissues were fixed in 4% paraformaldehyde and embedded in paraffin. 4 μm sections were de-paraffinized, rehydrated and antigen retrieved for 20 minutes at 97° C. using a predefined program on the Dako PT links. Antigen retrieval was performed using Envision FLEX High pH. Endogenous peroxidase activity was blocked using 3% hydrogen peroxide. Mouse Ig blocking reagent (M.O.M kit vector labs) was applied for 1 hour. Primary antibody incubation (1:100) in M.O.M diluent (vector labs) was for 20 minutes. […] Images were captured using an Olympus CKX41 microscope with Cell B imaging software. % area of staining was calculated using Fiji software (java) by running the ‘color deconvolution’ tool analyzing H DAB. […] The mean was calculated from 2 or 3 mice/experimental group.
Quantification of SMA staining in mouse tumours was carried out using color thresholding and deconvolution in Fiji. […]
CD8 and CD4 IHC was performed on frozen tissue embedded in OCT using [YTS169 (CD8; in house) and RM4-5 (CD4; BD) (FIG. 6c & FIG. 12e). […] CD8 and CD4 T-cells were counted from ten randomly selected fields of view (FoV) from the tumour by a consultant pathologist (GJT). […]

What does the source list for CN(C)CCCOc1ccc(-c2ccc3ncc4c(c3c2)n(C2CCOCC2)c(=O)n4C)cn1 [AZD0156]?
CD4 T-cell infiltration (IHC): unaffected; location of CD8 T-cells, tumour periphery to tumour core (IHC): significant relocation
